Source: patent US4398023A, “β-1,3-Glucanpolyol, process for preparation thereof, and utilization thereof” (Meito Sangyo Kabushiki Kaisha, priority 1979, dated 1983)
One block for each substance: values may come before it.

Experiments:
ICR-JCL mice = assay: Toxicity (LD50) on ICR-JCL mice; format: in vivo
Description: The toxicity of the β-1,3-glucanpolyol of this invention is very low, and the LD50 values of the products obtained in Examples 1, 4 and 5, for example, on ICR-JCL mice are as shown in Table 10.

[1] = tested on: NTF-reticulum cell sarcoma; assay: Antitumor activity test using NTF-reticulum cell sarcoma in ICR-JCL mice; format: in vivo; conditions: intraperitoneal, once a day for 10 days, fifth week
Experimental: (§1) The ascites cells of Sarcoma 180 were inoculated peritoneally in ICR-JCL mice having a body weight of about 23 g. […] Starting 24 hours after the transplantation, the glucanpolyol of this invention was intraperitoneally administered once a day for 10 days. In the fifth week, the tumor was enucleated and its weight was compared with that in non-treated groups. The tumor inhibition ratio was calculated, and the number of tumors which completely regressed was observed.
(§2) The tumor inhibition ratio was calculated in accordance with the following equation. [formula] wherein C is the average weight of tumor in non-treated groups (10 mice per group),
(§3) T is the average weight of tumor in treated groups (10 mice per group).
(9) An antitumor activity test using NTF-reticulum cell sarcoma in ICR-JCL mice
Six million NFT-reticulum cell sarcoma cells were transplanted into the subcutaneous portion of the right inguinal part of ICR-JCL mice having a body weight of about 23 g, and then, the same operation as in (1) above was performed.

Sarcoma 180 [2] = assay: Antitumor activity test using Sarcoma 180 in ICR-JCL mice; format: in vivo; conditions: intraperitoneal, once a day for 10 days, fifth week
Experimental: (1) An antitumor activity test using Sarcoma 180 in ICR-JCL mice
(§4) Starting 24 hours after the transplantation, the glucanpolyol of this invention was intraperitoneally administered once a day for 10 days. In the fifth week, the tumor was enucleated and its weight was compared with that in non-treated groups. The tumor inhibition ratio was calculated, and the number of tumors which completely regressed was observed.
as §2, §3

Sarcoma 180 [3] = assay: Antitumor activity test using Sarcoma 180 in ddY mice; format: in vivo; conditions: intraperitoneal, once a day for 10 days, fifth week
Experimental: as §1, §2, §3
(7) An antitumor activity test using Sarcoma 180 in ddY mice
Six million Sarcoma 180 cells were transplanted into the subcutaneous portion of the right inguinal part of ddY mice having a body weight of about 23 g, and then, the same operation as in (1) above was performed.

Sarcoma 180 [4] = assay: Antitumor activity test using Sarcoma 180 in C57 BL/6 mice; format: in vivo; conditions: intraperitoneal, once a day for 10 days, fifth week
Experimental: as §1, §2, §3
(6) An antitumor activity test using Sarcoma 180 in C57 BL/6 mice
Six million Sarcoma 180 cells were transplanted into the subcutaneous portion of the right inguinal part of the C57 BL/6 mice having a body weight of about 20 g, and then the same operation as in (1) above was performed.

CCM-adenocarcinoma = assay: Antitumor activity test using CCM-adenocarcinoma in ICR-JCL mice; format: in vivo; conditions: intraperitoneal, once a day for 10 days, fifth week
Experimental: as §1, §2, §3
(8) An antitumor activity test using CCM-adenocarcinoma in ICR-JCL mice
Six million CCM-adenocarcinoma cells were transplanted into the subcutaneous portion of the right inguinal part of ICR-JCL mice having a body weight of about 23 g, and then the same operation as in (1) above was performed.

[5] = Intrinsic viscosity [.eta.]; format: physicochemical; conditions: 25° C., aqueous solution; concentration in g/100 ml
Experimental: The intrinsic viscosity, as used in the present invention, is [.eta.] defined by the following equation. [formula] wherein .eta.sp =(.eta.-.eta.o)/.eta.o =/.eta.o -1 in which .eta. is the viscosity (at 25° C. in aqueous solution) of the solution and .eta.o is the viscosity of the solvent; and C is the concentration in g/100 ml.

Meth-A = assay: Antitumor activity test using Meth-A in Balb/c mice; format: in vivo; conditions: intraperitoneal, once a day for 10 days, fifth week
Experimental: as §4, §2, §3
(3) An antitumor activity test using Meth-A in Balb/c mice

Ehrlich Carcinoma = assay: Antitumor activity test using Ehrlich Carcinoma in ICR-JCL mice; format: in vivo; conditions: intraperitoneal, once a day for 10 days, fifth week
Experimental: as §4, §2, §3
(2) An antitumor activity test using Ehrlich Carcinoma in ICR-JCL mice

Sarcoma 180 [6] = assay: Antitumor activity test using Sarcoma 180 in Balb/c mice; format: in vivo; conditions: intraperitoneal, once a day for 10 days, fifth week
Experimental: as §1, §2, §3
(5) An antitumor activity test using Sarcoma 180 in Balb/c mice
Six million Sarcoma 180 cells were transplanted into the subcutaneous portion of the right inguinal part of the Balb/c mice having a body weight of about 23 g, and then, the same operation as in (1 ) above was performed.

Sarcoma 180 [7] = assay: Antitumor activity test using Sarcoma 180 in C3H/He mice; format: in vivo; conditions: intraperitoneal, once a day for 10 days, fifth week
Experimental: as §4, §2, §3
(4) An antitumor activity test using Sarcoma 180 in C3H/He mice

Substance: β-1,3-glucanpolyol [Example 4]
Toxicity after ultrasonic treatment (ICR-JCL mice; effect of ultrasonic treatment): lower toxicity
LD50 Intraperitoneal administration (ICR-JCL mice; intraperitoneal, ICR-JCL mice): above 5 g/kg
LD50 Intravenous administration (ICR-JCL mice; intravenous, ICR-JCL mice): 1500 mg/kg
LD50 Oral administration (ICR-JCL mice; oral, ICR-JCL mice): above 20 g/kg
Average weight of tumor ([1]; 1 mg/kg/day): 0.67 g
Complete regression ([1]; 1 mg/kg/day): 8/10
Tumor inhibition ratio ([1]; 1 mg/kg/day): 88.3%
Average weight of tumor ([1]; 5 mg/kg/day): 0.83 g
Complete regression ([1]; 5 mg/kg/day): 6/10
Tumor inhibition ratio ([1]; 5 mg/kg/day): 85.6%
Average weight of tumor (Sarcoma 180 [2]; 1 mg/kg/day): 0.92 g
Complete regression (Sarcoma 180 [2]; 1 mg/kg/day): 6/10
Tumor inhibition ratio (Sarcoma 180 [2]; 1 mg/kg/day): 91.6%
Average weight of tumor (Sarcoma 180 [2]; 5 mg/kg/day): 0.41 g
Complete regression (Sarcoma 180 [2]; 5 mg/kg/day): 8/10
Tumor inhibition ratio (Sarcoma 180 [2]; 5 mg/kg/day): 96.3%
Average weight of tumor (Sarcoma 180 [3]; 1 mg/kg/day): 0.25 g
Complete regression (Sarcoma 180 [3]; 1 mg/kg/day): 8/10
Tumor inhibition ratio (Sarcoma 180 [3]; 1 mg/kg/day): 97.7%
Average weight of tumor (Sarcoma 180 [3]; 5 mg/kg/day): 0.54 g
Complete regression (Sarcoma 180 [3]; 5 mg/kg/day): 8/10
Tumor inhibition ratio (Sarcoma 180 [3]; 5 mg/kg/day): 95.2%
Average weight of tumor (Sarcoma 180 [4]; 1 mg/kg/day): 0.13 g
Complete regression (Sarcoma 180 [4]; 1 mg/kg/day): 9/10
Tumor inhibition ratio (Sarcoma 180 [4]; 1 mg/kg/day): 96.4%
Average weight of tumor (Sarcoma 180 [4]; 5 mg/kg/day): 0.12 g
Complete regression (Sarcoma 180 [4]; 5 mg/kg/day): 9/10
Tumor inhibition ratio (Sarcoma 180 [4]; 5 mg/kg/day): 96.6%
Average weight of tumor (CCM-adenocarcinoma; 1 mg/kg/day): 0 g
Complete regression (CCM-adenocarcinoma; 1 mg/kg/day): 10/10
Tumor inhibition ratio (CCM-adenocarcinoma; 1 mg/kg/day): 100%
Average weight of tumor (CCM-adenocarcinoma; 5 mg/kg/day): 0.23 g
Complete regression (CCM-adenocarcinoma; 5 mg/kg/day): 8/10
Tumor inhibition ratio (CCM-adenocarcinoma; 5 mg/kg/day): 98.1%
Intrinsic viscosity [.eta.] [5]: 3.27 dL/g
Average weight of tumor (Meth-A; 5 mg/kg/day): 7.99 g
Complete regression (Meth-A; 5 mg/kg/day): 0/10
Tumor inhibition ratio (Meth-A; 5 mg/kg/day): 40.2%
Average weight of tumor (Meth-A; 20 mg/kg/day): 9.33 g
Complete regression (Meth-A; 20 mg/kg/day): 0/10
Tumor inhibition ratio (Meth-A; 20 mg/kg/day): 30.2%
Average weight of tumor (Ehrlich Carcinoma; 1 mg/kg/day): 1.48 g
Complete regression (Ehrlich Carcinoma; 1 mg/kg/day): 6/10
Tumor inhibition ratio (Ehrlich Carcinoma; 1 mg/kg/day): 90.1%
Average weight of tumor (Ehrlich Carcinoma; 5 mg/kg/day): 0.97 g
Complete regression (Ehrlich Carcinoma; 5 mg/kg/day): 6/10
Tumor inhibition ratio (Ehrlich Carcinoma; 5 mg/kg/day): 93.5%
Average weight of tumor (Sarcoma 180 [6]; 1 mg/kg/day): 0 g
Complete regression (Sarcoma 180 [6]; 1 mg/kg/day): 10/10
Tumor inhibition ratio (Sarcoma 180 [6]; 1 mg/kg/day): 100%
Average weight of tumor (Sarcoma 180 [6]; 5 mg/kg/day): 0 g
Complete regression (Sarcoma 180 [6]; 5 mg/kg/day): 10/10
Tumor inhibition ratio (Sarcoma 180 [6]; 5 mg/kg/day): 100%
Average weight of tumor (Sarcoma 180 [7]; 1 mg/kg/day): 5.62 g
Complete regression (Sarcoma 180 [7]; 1 mg/kg/day): 0/10
Tumor inhibition ratio (Sarcoma 180 [7]; 1 mg/kg/day): 56.5%
Average weight of tumor (Sarcoma 180 [7]; 5 mg/kg/day): 4.93 g
Complete regression (Sarcoma 180 [7]; 5 mg/kg/day): 1/10
Tumor inhibition ratio (Sarcoma 180 [7]; 5 mg/kg/day): 61.8%

Intrinsic viscosity [.eta.] [5]: 7.25 dL/g
Substance: β-1,3-glucanpolyol [Example 2]
Average weight of tumor ([1]; 1 mg/kg/day): 0.37 g
Complete regression ([1]; 1 mg/kg/day): 8/10
Tumor inhibition ratio ([1]; 1 mg/kg/day): 93.6%
Average weight of tumor (Sarcoma 180 [2]; 5 mg/kg/day): 0.30 g
Complete regression (Sarcoma 180 [2]; 5 mg/kg/day): 8/10
Tumor inhibition ratio (Sarcoma 180 [2]; 5 mg/kg/day): 97.3%
Average weight of tumor (Sarcoma 180 [3]; 1 mg/kg/day): 1.08 g
Complete regression (Sarcoma 180 [3]; 1 mg/kg/day): 7/10
Tumor inhibition ratio (Sarcoma 180 [3]; 1 mg/kg/day): 90.3%
Average weight of tumor (Sarcoma 180 [4]; 1 mg/kg/day): 0.21 g
Complete regression (Sarcoma 180 [4]; 1 mg/kg/day): 8/10
Tumor inhibition ratio (Sarcoma 180 [4]; 1 mg/kg/day): 94.1%
Average weight of tumor (CCM-adenocarcinoma; 1 mg/kg/day): 0.61 g
Complete regression (CCM-adenocarcinoma; 1 mg/kg/day): 8/10
Tumor inhibition ratio (CCM-adenocarcinoma; 1 mg/kg/day): 95.0%
Average weight of tumor (Meth-A; 5 mg/kg/day): 6.73 g
Complete regression (Meth-A; 5 mg/kg/day): 0/10
Tumor inhibition ratio (Meth-A; 5 mg/kg/day): 49.6%
Average weight of tumor (Ehrlich Carcinoma; 1 mg/kg/day): 1.27 g
Complete regression (Ehrlich Carcinoma; 1 mg/kg/day): 6/10
Tumor inhibition ratio (Ehrlich Carcinoma; 1 mg/kg/day): 91.5%
Average weight of tumor (Ehrlich Carcinoma; 5 mg/kg/day): 0.83 g
Complete regression (Ehrlich Carcinoma; 5 mg/kg/day): 7/10
Tumor inhibition ratio (Ehrlich Carcinoma; 5 mg/kg/day): 94.4%
Average weight of tumor (Sarcoma 180 [6]; 1 mg/kg/day): 0.09 g
Complete regression (Sarcoma 180 [6]; 1 mg/kg/day): 8/10
Tumor inhibition ratio (Sarcoma 180 [6]; 1 mg/kg/day): 97.5%
Average weight of tumor (Sarcoma 180 [7]; 5 mg/kg/day): 3.50 g
Complete regression (Sarcoma 180 [7]; 5 mg/kg/day): 4/10
Tumor inhibition ratio (Sarcoma 180 [7]; 5 mg/kg/day): 72.9%
